Reference: patent US20040176370A1, “3,4-Dihdro-N-[[1-(3-hydroxybutyl)-4-piperidinyl]methyl]-2H-[1,3]oxazino[3,2-a]indole-10-carboxamide as 5-HT(4) receptor antagonist” (SmithKline Beecham p.l.c., priority 1998, published 2004)

Legend:
[1] = tested on: DMPP-evoked contractions (nicotinic receptor agonist); assay: Selectivity test: cholinergically-mediated contractions of guinea-pig colon evoked by the nicotinic receptor agonist DMPP; assay type: cell-based; settings: guinea-pig colon LMMP, dose response curve to DMPP
Method: To test for selectivity of action, compounds are tested for their ability to antagonise cholinergically-mediated contractions of the guinea-pic colon, evoked by the nicotinic receptor agonist, DMPP (1,1-dimethyl-4-phenyl-piperazinium iodide). For these experiments, tissues and equipment are set up as for the above, 5HT4 receptor experiments. After sensitization, non-cumulative dose response curves are constructed to DMPP. Test compounds are incubated with the tissues as above, and a second dose response curve to DMPP created. Results are given as mean pKB±SEM values for each antagonists.

5-HT4 receptor = molecular target: T1, 5-HT4 receptor (Cavia porcellus, UniProt O70528); assay: 5-HT4 receptor antagonist activity: 5-HT-evoked contractions of guinea-pig distal colon LMMP preparations; assay type: cell-based; settings: antagonism of 5-HT dose response curve, 45 minutes incubation
T1 construct: Longitudinal muscle-myenteric plexus (LMMP) preparations, 2-3 cm long, are obtained from the distal colon region; from tissue; host or cells: guinea-pig distal colon longitudinal muscle-myenteric plexus (LMMP)
T1 sequence (O70528 whole entry): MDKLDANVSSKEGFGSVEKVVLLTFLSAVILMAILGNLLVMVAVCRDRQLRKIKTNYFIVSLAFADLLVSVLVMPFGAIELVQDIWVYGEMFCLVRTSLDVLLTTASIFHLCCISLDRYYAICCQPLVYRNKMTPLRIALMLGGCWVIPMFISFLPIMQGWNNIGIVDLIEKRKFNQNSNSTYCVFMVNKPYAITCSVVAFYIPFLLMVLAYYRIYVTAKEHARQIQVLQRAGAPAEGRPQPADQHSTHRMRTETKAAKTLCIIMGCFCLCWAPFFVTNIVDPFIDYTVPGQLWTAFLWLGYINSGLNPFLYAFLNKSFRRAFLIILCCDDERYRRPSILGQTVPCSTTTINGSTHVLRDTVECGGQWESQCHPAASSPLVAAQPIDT
Method: 5-HT4 RECEPTOR ANTAGONIST ACTIVITY
Male Dunkin Hartley guinea-pigs, weighing 200-300 g are used. Longitudinal muscle-myenteric plexus (LMMP) preparations, 2-3 cm long, are obtained from the distal colon region. These are suspended under a 0.5 g load in isolated tissue baths containing Krebs Henseleit solution (NaCl 118 mM, KCl 4.7 mM KH2PO4 1.2 mM MgSO4 7H2O 1.2 mM, Glucose 11.1 mM, NaHCO3 25 mM, CaCl2 6H2O 2.5 mM) bubbled with 5% CO2 in O2, maintained at 37° C. and containing 1 uM Granisetron and 0.1 uM Methiothepin to block 5HT3 and 5HT1-like receptors respectively. 100 uM Pargyline is also added to the tissues at the start of the experiment. Tissues are left for 15 minutes to equilibrate and then exposed to 5-HT at 0.1 uM every 15 minutes until a uniform response is achieved. Following a half hour period for tissues to stabilise, non-cumulative dose response curves to 5-HT are constructed in all tissues. When base-lines have returned to normal, test compounds are added in the reservoirs of the tissue set-ups and washed in to the tissues. Tissues are incubated with the antagonists for 45 minutes after which a second non-cumulative dose response curve to 5-HT is constructed. […]

For CC(O)CCN1CCC(CNC(=O)c2c3n(c4ccccc24)CCCO3)CC1 (racemic) [compound of formula (I), 3,4dihydro-N-[[1-(3-hydroxybutyl)-4-piperidinyl]methyl]-2H-[1,3]oxazino[3,2-α]indole-10-carboxamide], the “effect on DMPP-evoked contractions” value [1] was “did not significantly affect” and the Kb (5-HT4 receptor) was 0.501 nM.
